Experimental data from the NIST ThermoML archive (doi:10.1021/je901067c).
± gives the expanded uncertainty stated by the source.

Key:
[1] = xn = mol fraction of the nth substance listed; settings: 101 kPa, Liquid; for viscosity: Capillary tube (Ostwald / Ubbelohde) method
[2] = refractive index (Na D-line) (dimensionless); xn = mol fraction of the nth substance listed; settings: 101 kPa, Liquid, Standard Abbe refractometry

CCC(O)CC [3-pentanol] + CCC(C)=O
Settings	mass density, 298.15 K [kg/m3]	mass density, 308.15 K [kg/m3]	mass density, 318.15 K [kg/m3]	refractive index, 298.15 K	refractive index, 308.15 K	refractive index, 318.15 K	viscosity, 298.15 K [mPa·s]	viscosity, 308.15 K [mPa·s]	viscosity, 318.15 K [mPa·s]
[1], x2 = 0	815.79 ± 0.54	806.91 ± 0.56	797.66 ± 0.57	–	–	–	4.625 ± 0.034	2.864 ± 0.022	1.902 ± 0.015
[1], x2 = 0.0843	813.43 ± 0.55	804.58 ± 0.56	795.034 ± 0.57	–	–	–	2.842 ± 0.022	1.965 ± 0.015	1.382 ± 0.011
[1], x2 = 0.1622	811.5 ± 0.55	802.6 ± 0.56	792.888 ± 0.57	–	–	–	2.007 ± 0.015	1.476 ± 0.012	0.9911 ± 0.0086
[1], x2 = 0.2428	809.72 ± 0.55	800.57 ± 0.56	790.723 ± 0.57	–	–	–	1.494 ± 0.012	1.151 ± 0.01	0.7246 ± 0.0069
[1], x2 = 0.3505	807.45 ± 0.55	798.07 ± 0.57	788.175 ± 0.58	–	–	–	1.084 ± 0.009	0.869 ± 0.008	0.5197 ± 0.0058
[1], x2 = 0.4415	805.82 ± 0.56	796.23 ± 0.57	786.285 ± 0.58	–	–	–	0.86 ± 0.008	0.717 ± 0.007	0.417 ± 0.0053
[1], x2 = 0.5584	803.92 ± 0.56	794.1 ± 0.57	784.161 ± 0.58	–	–	–	0.677 ± 0.007	0.578 ± 0.006	0.3306 ± 0.0049
[1], x2 = 0.6526	802.64 ± 0.56	792.64 ± 0.57	782.699 ± 0.58	–	–	–	0.591 ± 0.006	0.506 ± 0.006	0.2938 ± 0.0048
[1], x2 = 0.7399	801.72 ± 0.56	791.55 ± 0.57	781.619 ± 0.59	–	–	–	0.508 ± 0.006	0.448 ± 0.005	0.2919 ± 0.0048
[1], x2 = 0.854	800.8 ± 0.56	790.31 ± 0.58	780.165 ± 0.59	–	–	–	0.445 ± 0.005	0.396 ± 0.005	0.297 ± 0.0048
[1], x2 = 0.9383	800.16 ± 0.56	789.7 ± 0.58	779.212 ± 0.59	–	–	–	0.407 ± 0.005	0.365 ± 0.005	0.3106 ± 0.0048
[2], x2 = 0	–	–	–	1.4047 ± 0.0009	1.4029 ± 0.0009	1.3981 ± 0.0009	–	–	–
[2], x2 = 0.0843	–	–	–	1.4032 ± 0.0009	1.4012 ± 0.0009	1.3965 ± 0.0009	–	–	–
[2], x2 = 0.1622	–	–	–	1.4016 ± 0.0009	1.3995 ± 0.0009	1.3949 ± 0.0009	–	–	–
[2], x2 = 0.2428	–	–	–	1.3999 ± 0.0009	1.3975 ± 0.0009	1.3929 ± 0.0009	–	–	–
[2], x2 = 0.3505	–	–	–	1.3971 ± 0.0009	1.3944 ± 0.0009	1.3901 ± 0.0009	–	–	–
[2], x2 = 0.4415	–	–	–	1.3945 ± 0.0009	1.3916 ± 0.0009	1.3873 ± 0.0009	–	–	–
[2], x2 = 0.5584	–	–	–	1.3908 ± 0.0009	1.3876 ± 0.0009	1.3835 ± 0.0009	–	–	–
[2], x2 = 0.6526	–	–	–	1.3876 ± 0.0009	1.3841 ± 0.0009	1.38 ± 0.0009	–	–	–
[2], x2 = 0.7399	–	–	–	1.3846 ± 0.0009	1.3806 ± 0.0009	1.3767 ± 0.0009	–	–	–
[2], x2 = 0.854	–	–	–	1.3803 ± 0.0009	1.376 ± 0.0009	1.372 ± 0.0009	–	–	–
[2], x2 = 0.9383	–	–	–	1.3773 ± 0.0009	1.3725 ± 0.0009	1.3684 ± 0.0009	–	–	–

CCC(C)=O [butanone] + CCCCCO
Settings	mass density, 298.15 K [kg/m3]	mass density, 308.15 K [kg/m3]	mass density, 318.15 K [kg/m3]	refractive index, 298.15 K	refractive index, 308.15 K	refractive index, 318.15 K	viscosity, 298.15 K [mPa·s]	viscosity, 308.15 K [mPa·s]	viscosity, 318.15 K [mPa·s]
[1], x1 = 0.088	809.94 ± 0.55	802.26 ± 0.56	794.44 ± 0.57	–	–	–	2.557 ± 0.019	2.011 ± 0.015	1.608 ± 0.013
[1], x1 = 0.1632	809.15 ± 0.55	801.25 ± 0.56	793.21 ± 0.57	–	–	–	1.997 ± 0.015	1.616 ± 0.013	1.321 ± 0.011
[1], x1 = 0.2427	808.31 ± 0.55	800.16 ± 0.56	791.89 ± 0.57	–	–	–	1.592 ± 0.012	1.304 ± 0.01	1.097 ± 0.009
[1], x1 = 0.3549	807.11 ± 0.55	798.62 ± 0.57	789.99 ± 0.58	–	–	–	1.202 ± 0.01	1.009 ± 0.009	0.852 ± 0.008
[1], x1 = 0.4434	806.15 ± 0.56	797.39 ± 0.57	788.5 ± 0.58	–	–	–	0.983 ± 0.008	0.835 ± 0.008	0.721 ± 0.007
[1], x1 = 0.5597	804.87 ± 0.56	795.76 ± 0.57	786.5 ± 0.58	–	–	–	0.773 ± 0.007	0.667 ± 0.007	0.585 ± 0.006
[1], x1 = 0.6518	803.85 ± 0.56	794.44 ± 0.57	784.88 ± 0.58	–	–	–	0.648 ± 0.006	0.57 ± 0.006	0.5 ± 0.006
[1], x1 = 0.7401	802.85 ± 0.56	793.14 ± 0.57	783.31 ± 0.58	–	–	–	0.554 ± 0.006	0.492 ± 0.006	0.443 ± 0.005
[1], x1 = 0.8477	801.59 ± 0.56	791.54 ± 0.57	781.36 ± 0.59	–	–	–	0.485 ± 0.006	0.427 ± 0.005	0.381 ± 0.005
[1], x1 = 0.9355	800.55 ± 0.56	790.21 ± 0.58	779.73 ± 0.59	–	–	–	0.42 ± 0.005	0.38 ± 0.005	0.345 ± 0.005
[1], x1 = 1	799.76 ± 0.56	789.21 ± 0.58	778.52 ± 0.59	–	–	–	0.391 ± 0.005	0.361 ± 0.005	0.334 ± 0.005
[2], x1 = 0.088	–	–	–	1.4049 ± 0.0009	1.4014 ± 0.0009	1.3976 ± 0.0009	–	–	–
[2], x1 = 0.1632	–	–	–	1.4031 ± 0.0009	1.3997 ± 0.0009	1.3957 ± 0.0009	–	–	–
[2], x1 = 0.2427	–	–	–	1.401 ± 0.0009	1.3976 ± 0.0009	1.3937 ± 0.0009	–	–	–
[2], x1 = 0.3549	–	–	–	1.3979 ± 0.0009	1.3943 ± 0.0009	1.3905 ± 0.0009	–	–	–
[2], x1 = 0.4434	–	–	–	1.3953 ± 0.0009	1.3914 ± 0.0009	1.3878 ± 0.0009	–	–	–
[2], x1 = 0.5597	–	–	–	1.3915 ± 0.0009	1.3873 ± 0.0009	1.3838 ± 0.0009	–	–	–
[2], x1 = 0.6518	–	–	–	1.3883 ± 0.0009	1.3838 ± 0.0009	1.3804 ± 0.0009	–	–	–
[2], x1 = 0.7401	–	–	–	1.3851 ± 0.0009	1.3804 ± 0.0009	1.377 ± 0.0009	–	–	–
[2], x1 = 0.8477	–	–	–	1.381 ± 0.0009	1.376 ± 0.0009	1.3724 ± 0.0009	–	–	–
[2], x1 = 0.9355	–	–	–	1.3776 ± 0.0009	1.3725 ± 0.0009	1.3686 ± 0.0009	–	–	–
[2], x1 = 1	–	–	–	1.375 ± 0.0009	1.37 ± 0.0009	1.3657 ± 0.0009	–	–	–

CCCC(C)O (configuration not stated) [pentan-2-ol] + CCC(C)=O
Settings	mass density, 298.15 K [kg/m3]	mass density, 308.15 K [kg/m3]	mass density, 318.15 K [kg/m3]	refractive index, 298.15 K	refractive index, 308.15 K	refractive index, 318.15 K	viscosity, 298.15 K [mPa·s]	viscosity, 308.15 K [mPa·s]	viscosity, 318.15 K [mPa·s]
[1], x2 = 0	805.3 ± 0.56	797 ± 0.57	788.37 ± 0.58	–	–	–	3.478 ± 0.026	2.361 ± 0.018	1.772 ± 0.014
[1], x2 = 0.0824	804 ± 0.56	795.54 ± 0.57	786.83 ± 0.58	–	–	–	2.664 ± 0.02	1.778 ± 0.014	1.344 ± 0.011
[1], x2 = 0.1612	802.99 ± 0.56	794.34 ± 0.57	785.5 ± 0.58	–	–	–	2.066 ± 0.016	1.381 ± 0.011	1.094 ± 0.009
[1], x2 = 0.2401	802.04 ± 0.56	793.29 ± 0.57	784.32 ± 0.58	–	–	–	1.69 ± 0.013	1.105 ± 0.009	0.897 ± 0.008
[1], x2 = 0.3519	800.97 ± 0.56	791.97 ± 0.57	782.76 ± 0.59	–	–	–	1.347 ± 0.011	0.865 ± 0.008	0.721 ± 0.007
[1], x2 = 0.4396	800.31 ± 0.56	791.07 ± 0.57	781.66 ± 0.59	–	–	–	1.131 ± 0.009	0.731 ± 0.007	0.642 ± 0.006
[1], x2 = 0.5608	799.65 ± 0.56	790.15 ± 0.58	780.47 ± 0.59	–	–	–	0.886 ± 0.008	0.587 ± 0.006	0.514 ± 0.006
[1], x2 = 0.6494	799.34 ± 0.56	789.63 ± 0.58	779.91 ± 0.59	–	–	–	0.743 ± 0.007	0.518 ± 0.006	0.457 ± 0.006
[1], x2 = 0.7403	799.2 ± 0.56	789.23 ± 0.58	779.15 ± 0.59	–	–	–	0.623 ± 0.006	0.462 ± 0.006	0.407 ± 0.005
[1], x2 = 0.8491	799.26 ± 0.56	789.02 ± 0.58	778.67 ± 0.59	–	–	–	0.505 ± 0.006	0.406 ± 0.005	0.366 ± 0.005
[1], x2 = 0.9384	799.49 ± 0.56	789.09 ± 0.58	778.55 ± 0.59	–	–	–	0.436 ± 0.005	0.371 ± 0.005	0.338 ± 0.005
[2], x2 = 0	–	–	–	1.4032 ± 0.0009	1.399 ± 0.0009	1.395 ± 0.0009	–	–	–
[2], x2 = 0.0824	–	–	–	1.4014 ± 0.0009	1.3974 ± 0.0009	1.3937 ± 0.0009	–	–	–
[2], x2 = 0.1612	–	–	–	1.3998 ± 0.0009	1.3959 ± 0.0009	1.3923 ± 0.0009	–	–	–
[2], x2 = 0.2401	–	–	–	1.398 ± 0.0009	1.3941 ± 0.0009	1.3906 ± 0.0009	–	–	–
[2], x2 = 0.3519	–	–	–	1.3952 ± 0.0009	1.3914 ± 0.0009	1.3877 ± 0.0009	–	–	–
[2], x2 = 0.4396	–	–	–	1.3929 ± 0.0009	1.389 ± 0.0009	1.3852 ± 0.0009	–	–	–
[2], x2 = 0.5608	–	–	–	1.3895 ± 0.0009	1.3854 ± 0.0009	1.3813 ± 0.0009	–	–	–
[2], x2 = 0.6494	–	–	–	1.3868 ± 0.0009	1.3826 ± 0.0009	1.3782 ± 0.0009	–	–	–
[2], x2 = 0.7403	–	–	–	1.384 ± 0.0009	1.3796 ± 0.0009	1.375 ± 0.0009	–	–	–
[2], x2 = 0.8491	–	–	–	1.3803 ± 0.0009	1.3757 ± 0.0009	1.3711 ± 0.0009	–	–	–
[2], x2 = 0.9384	–	–	–	1.3772 ± 0.0009	1.3724 ± 0.0009	1.3679 ± 0.0009	–	–	–
